Read-outs that look alike come from different tables or passages of the source.
Key:
Assay type in all cases: physicochemical
[1] = Form conversion on heating / desolvation (XRPD, FIG. 5, FIG. 8); settings: heated to 200° C.
[2] = Dynamic moisture sorption analysis (DVS)
Method: DVS was determined using DVS Intrinsic (SMS, UK). A sample was tested at a targeted relative humidity (RH) of 10 to 90% full cycle in step mode. The analysis was performed in 10% RH increments: • Equilibrium: 60 min; • RH (%) measurement points: • Sorption: 0, 10, 20, 30, 40, 50, 60, 70, 80, 90 • Desorption: 80, 70, 60, 50, 40, 30, 20, 10, 0.

[3] = Inter-conversion study (competitive slurry); settings: for Slurry at 50° C. 1 or 7 d (wet cake) / Slurry at RT (~20° C.) 3 d (wet cake): competitive slurry in IPA, resulting form; for form after slurry: ACN-water (1/9); for Form at 7 d: slurry in ACN/water 1/9 (v/v)
Method: (20 mg/mL) and RT (10 mg/mL), and in ACN-water (1/9) at 50° C. (10 mg/mL) and RT (5 mg/mL).
The mixture of crystalline Form I and crystalline Form V of the sample was suspended in IPA at 50° C. (20 mg/mL) and RT (5 mg/mL).
The residual solids from both mixtures were obtained and characterized.

[4] = Stability study (grinding, high humidity)
Method: A certain amount (e.g., ˜10 mg) of crystalline Form I was ground for 2 min or put at 25° C./92.5% RH for 2 weeks. Then the sample was tested by XRPD to determine the physical stability.

Rough solubility testing = settings: for solubility: thermodynamic from solid, ~20° C., read-out: Solubility of Tosylate (mg/mL, ~20° C.); for solubility (in words): RT (~20° C.)
Method: About 2 mg of crystalline Form I was weighed into glass vials, and then different selected solvents were added in the vial stepwise until all solid was dissolved. This experiment was conducted by manual dilution combined with visual observation at ˜20° C. The total volume of solvent added was recorded.

Water activity study = assay: Water activity study
Method: A certain amount (e.g., ˜70 mg) of crystalline Form I was stirred in 500 μL of acetone-water mixtures with different water content (5%, 10%, 30%, 50%, 70% and 90%) at RT (˜20° C.) for 3, 7 or 8 days. Residual solids were collected and characterized.

Slurry study = settings: XRPD; for Form of wet cake at 1 day: 50° C.; for Form of wet cake at 4 days: RT (~20° C.), ~25 mg/mL
Method: Appropriate amount of crystalline Form I was added into different solvents to make suspension. The suspensions were kept stirring at room temperature (RT, ˜20° C.) or 50° C., respectively. Solid samples were collected and analyzed by XRPD at a specific time. If new XRPD patterns were identified, the sample was further analyzed by DSC and TGA.

[5] = slurry in Acetone/water 1/1 (v/v), water activity 0.93, RT
[6] = slurry in Acetone/water 1/9 (v/v), water activity 0.98, RT
[7] = slurry in Acetone/water 3/7 (v/v), water activity 0.95, RT
[8] = slurry in Acetone/water 7/3 (v/v), water activity 0.88, RT
[9] = slurry in Acetone/water 9/1 (v/v), water activity 0.72, RT
[10] = slurry in Acetone/water 19/1 (v/v), water activity 0.31, RT

In the case of `C=CC(=O)Nc1cc(Nc2nccc(-n3ccc4cccnc43)n2)c(OC)cc1N(C)CCN(C)C.Cc1ccc(S(=O)(=O)O)cc1` [Form IV, N-(5-((4-(1H-pyrrolo[2,3-b]pyridin-1-yl)pyrimidin-2-yl)amino)-2-((2-(dimethylamino)ethyl)(methyl)amino)-4-methoxyphenyl)acrylamide tosylate salt], the “form conversion on heating” value [1] is reported as “convert to crystalline Form III”.

In the case of `C=CC(=O)Nc1cc(Nc2nccc(-n3ccc4cccnc43)n2)c(OC)cc1N(C)CCN(C)C.Cc1ccc(S(=O)(=O)O)cc1` [Form VI, N-(5-((4-(1H-pyrrolo[2,3-b]pyridin-1-yl)pyrimidin-2-yl)amino)-2-((2-(dimethylamino)ethyl)(methyl)amino)-4-methoxyphenyl)acrylamide tosylate salt], the water sorption ([2]; 80% RH and 25° C.) is reported as 0.72%, the hygroscopicity ([2]; DVS, 80% RH and 25° C.) is reported as “slightly hygroscopic” and the “crystalline form change after DVS test” value ([2]; after DVS test) is reported as “no crystalline form change”.

With `C=CC(=O)Nc1cc(Nc2nccc(-n3ccc4cccnc43)n2)c(OC)cc1N(C)CCN(C)C.Cc1ccc(S(=O)(=O)O)cc1` [Form I and V (1:1)] the “Slurry at 50° C. 1 or 7 d (wet cake)” value ([3]; 50° C.) was “From I” and the “Slurry at RT (~20° C.) 3 d (wet cake)” value ([3]; RT) was “Form I”.

For `C=CC(=O)Nc1cc(Nc2nccc(-n3ccc4cccnc43)n2)c(OC)cc1N(C)CCN(C)C.Cc1ccc(S(=O)(=O)O)cc1` [Form I, N-(5-((4-(1H-pyrrolo[2,3-b]pyridin-1-yl)pyrimidin-2-yl)amino)-2-((2-(dimethylamino)ethyl)(methyl)amino)-4-methoxyphenyl)acrylamide tosylate salt], the solid-state stability ([4]; after stressing with temperature and high RH) was “good solid-state stability”, the “Physical stability (form change by XRPD)” value ([4]; high humidity, 25° C./92.5% RH for 2 weeks) was “No form change” and the “Physical stability (form change by XRPD)” value ([4]; mechanical stress (grinding, 2 min)) was “No form change”. The solubility (Rough solubility testing; ACN (acetonitrile), organic solvent or mixture, solvent ACN) was roughly 2.2 mg/mL, the “solubility (in words)” value (Rough solubility testing; in MeOH and DCM) was “relatively high solubility” and the “solubility (in words)” value (Rough solubility testing; in the other single solvents (not MeOH, DCM)) was “very low solubility”. The solubility (Rough solubility testing; organic solvent or mixture, solvent Acetone) was roughly 0.95 mg/mL, the solubility (Rough solubility testing; organic solvent or mixture, solvent DCM) was roughly 5.1 mg/mL and the solubility (Rough solubility testing; organic solvent or mixture, solvent EA) was less than 1 mg/mL. For the same compound, the solubility (Rough solubility testing; organic solvent or mixture, solvent EtOH) was roughly 1.9 mg/mL, the solubility (Rough solubility testing; organic solvent or mixture, solvent Heptane) was less than 1 mg/mL and the solubility (Rough solubility testing; organic solvent or mixture, solvent IPA) was less than 1.11 mg/mL. For the same compound, the solubility (Rough solubility testing; organic solvent or mixture, solvent IPAC) was less than 1.2 mg/mL, the solubility (Rough solubility testing; organic solvent or mixture, solvent Isobutanol) was less than 1 mg/mL and the solubility (Rough solubility testing; organic solvent or mixture, solvent MEK) was roughly 0.92 mg/mL. It also gave a solubility (Rough solubility testing; organic solvent or mixture, solvent MTBE) of less than 1.1 mg/mL, a solubility (Rough solubility testing; organic solvent or mixture, solvent MeOH) of roughly 27.3 mg/mL and a solubility (Rough solubility testing; organic solvent or mixture, solvent THF) of less than 1.14 mg/mL. For the same compound, the solubility (Rough solubility testing; organic solvent or mixture, solvent Toluene) was less than 1.2 mg/mL, the solubility (Rough solubility testing; solvent Water) was less than 1.02 mg/mL and the “Form at 3 d” value (Water activity study; [5]) was “Form V”. For the same compound, the “Form at 7 d” value (Water activity study; [5]) was “Form V”, the “Form at 3 d” value (Water activity study; [6]) was “Form I” and the “Form at 7 d” value (Water activity study; [6]) was “Form I”. For the same compound, the “Form at 3 d” value (Water activity study; [7]) was “Form V”, the “Form at 7 d” value (Water activity study; [7]) was “Form V” and the “Form at 3 d” value (Water activity study; [8]) was “Form V”. The “Form at 7 d” value (Water activity study; [8]) was “Form V”, the “Form at 3 d” value (Water activity study; [9]) was “Form V” and the “Form at 7 d” value (Water activity study; [9]) was “Form V”. The “Form at 3 d” value (Water activity study; [10]) was “Form I”, the “Form at 7 d” value (Water activity study; [10]) was “Form VII” and the “Form at 8 d” value (Water activity study; [10]) was “Form V”. For the same compound, the form after slurry ([3]; 50° C.) was “crystalline Form III”, the form after slurry ([3]; RT) was “crystalline Form VI” and the “relative stability among crystal forms” value ([3]; polymorph screening, anhydrate forms) was “most stable anhydrate form”. The “Form of wet cake at 1 day” value (Slurry study; slurry in ACN) was “Form I”, the “Form of wet cake at 4 days” value (Slurry study; slurry in ACN) was “Form I” and the “Form of wet cake at 1 day” value (Slurry study; slurry in Acetone) was “Form I”. For the same compound, the “Form of wet cake at 4 days” value (Slurry study; slurry in Acetone) was “Form I”, the “Form of wet cake at 1 day” value (Slurry study; slurry in EA) was “Form I” and the “Form of wet cake at 4 days” value (Slurry study; slurry in EA) was “Form I”. The “Form of wet cake at 1 day” value (Slurry study; slurry in EtOH) was “Form I”, the “Form of wet cake at 4 days” value (Slurry study; slurry in EtOH) was “Form I” and the “Form of wet cake at 1 day” value (Slurry study; slurry in Heptane) was “Form I”. For the same compound, the “Form of wet cake at 4 days” value (Slurry study; slurry in Heptane) was “Form I”, the “Form of wet cake at 1 day” value (Slurry study; slurry in IPA) was “Form I” and the “Form of wet cake at 4 days” value (Slurry study; slurry in IPA) was “Form I”. The “Form of wet cake at 1 day” value (Slurry study; slurry in IPAC) was “Form I”, the “Form of wet cake at 4 days” value (Slurry study; slurry in IPAC) was “Form I” and the “Form of wet cake at 1 day” value (Slurry study; slurry in Isobutanol) was “Form I”. For the same compound, the “Form of wet cake at 4 days” value (Slurry study; slurry in Isobutanol) was “Form I”, the “Form of wet cake at 1 day” value (Slurry study; slurry in MEK) was “Form I” and the “Form of wet cake at 4 days” value (Slurry study; slurry in MEK) was “Form I”. For the same compound, the “Form of wet cake at 1 day” value (Slurry study; slurry in MTBE) was “Form I”, the “Form of wet cake at 4 days” value (Slurry study; slurry in MTBE) was “Form I” and the “Form of wet cake at 1 day” value (Slurry study; slurry in THF) was “Form I”. The “Form of wet cake at 4 days” value (Slurry study; slurry in THF) was “Form I”, the “Form of wet cake at 1 day” value (Slurry study; slurry in Toluene) was “Form I” and the “Form of wet cake at 4 days” value (Slurry study; slurry in Toluene) was “Form I”. The “Form of wet cake at 1 day” value (Slurry study; slurry in Water) was “Form I” and the “Form of wet cake at 4 days” value (Slurry study; slurry in Water) was “Form I”.

In the case of `C=CC(=O)Nc1cc(Nc2nccc(-n3ccc4cccnc43)n2)c(OC)cc1N(C)CCN(C)C.Cc1ccc(S(=O)(=O)O)cc1` [Form I and III (1:1)], the “Slurry at 50° C. 1 or 7 d (wet cake)” value ([3]; 50° C.) is reported as “Form I”, the “Slurry at RT (~20° C.) 3 d (wet cake)” value ([3]; RT) is reported as “Form I” and the “Form at 7 d” value ([3]; 50° C.) is reported as “Form III”. The “Form at 7 d” value ([3]; RT (~20° C.)) was “Form VI”.

Source: patent publication US20240239796A1, “CRYSTALLINE POLYMORPHS OF EPIDERMAL GROWTH FACTOR RECEPTOR INHIBITOR, AND COMPOSITIONS AND METHODS THEREOF” (Crimson BioPharm Inc., priority 2022, published 2024)
